Results reported in patent US12410124B2 (priority 2019, dated 2025).

Columns and labels:
Assay type in all cases: in vivo
midbrain p-α-s = test: Midbrain p-α-s protein expression in MPTP Parkinson's disease model mouse (western-blotting); settings: midbrain total protein, GAPDH internal reference, gavage 21 consecutive days after MPTP modeling
Experimental: (§1) Neurotoxins can be used to establish PD animal models. Currently, 1-methyl-4-phenyl-1,2,3,6-tetrahydropyridine (MPTP) is the sole synthetic toxin which is recognized to induce PD symptoms in human and non-human primates and in mice. Using MPTP subacute modeling method, C57BL/6J male mice were intraperitoneally injected with MPTP 30 mg/kg, once a day for 5 consecutive days. The experiment animals were divided into blank control group, MPTP model group, and compound treatment group. For the […] compound treatment group, the compound was administrated by gavage for 21 consecutive days after the completion of modeling; for the MPTP model group, the normal saline was administrated by gavage for 21 consecutive days after the completion of modeling; and for the blank control group, the normal saline was first intraperitoneally injected for 5 days, and then administrated by gavage for 21 days.
Alpha-synuclein is an “unfolded protein” in its natural state. It exists in a monomeric form, and participates in the physiological functions such as the release of neurotransmitters, the establishment of synaptic junctions, and the regulation of synaptic plasticity. Under pathological conditions, more than 90% of alpha-synuclein is phosphorylated at serine of position 129 and converted into phosphorylated alpha-synuclein (p-α-s), thereby forming Lewy bodies. The formation of Lewy bodies is one of the main pathological manifestations and pathological mechanisms for Parkinson's disease, and plays an important role in the formation and development of PD. The detection of the p-α-s expression in the midbrain and substantia nigra of PD model mice can evaluate the neuroprotective activity of the compound.
(§2) Half of experiment mice in each group were taken to extract the total midbrain protein, and the change in the midbrain P-α-s protein expression was determined by western-blotting using GAPDH as the internal reference. The experiment included blank control group, MPTP model group, positive control group (caffeic acid phenethyl ester, CAPE), prototype control group (styryl sulfone compounds 3B, 3C, 3D, and 3G, whose structures are shown as above), and target compound group.

midbrain CD11b = test: Midbrain CD11b protein expression in MPTP Parkinson's disease model mouse (western-blotting); settings: midbrain, MPTP Parkinson's disease model mouse, western-blotting
Experimental: as §1
Neuron-glial cell network homeostasis disorder is an important factor for the selective and progressive death of substantia nigra dopaminergic neurons in PD. In the neurotoxic effect of MPTP, the excessive activations of microglial cells and astrocytes produce a variety of inflammatory cytokines and reactive oxygen species (ROS). These inflammatory factors and ROS amplify their respective toxicities and mediate malignant feedback loop, causing a cascade inflammation response and aggravating the pathological process of PD. CD11b and GFAP are the marker proteins for activations of microglial cells and astrocytes, respectively. Therefore, the effect of the target compounds on the activations of the microglial cells and astrocytes in the substantia nigra, hippocampus, and midbrain areas of MPTP-induced PD mice can be investigated, to explore the mechanism of the anti-PD effect of the target compounds by inhibiting the neuroinflammation.
[…] The experiment included blank control group, MPTP model group, positive control group (caffeic acid phenethyl ester, CAPE), prototype control group (styryl sulfone compounds 3B, 3C, 3D), and 3G, whose structures are shown as above), and target compound group.

midbrain pp38 = test: Midbrain pp38 protein expression in MPTP Parkinson's disease model mouse (western-blotting); settings: midbrain total protein, GAPDH internal reference, gavage 21 days after MPTP modeling
Experimental: as §1
(§3) The p38 mitogen-activated protein kinase (p38 MAPK) is expressed in both neurons and glial cells, and is the intersection point of neuron-glial cell network information regulations. The activation of p38 signaling pathway is an important initiator of neuronal degeneration, which continuously induces the apoptosis of dopaminergic neurons in multiple ways. It has become a research hotspot for the treatment of PD. Studies have shown that the protective mechanism of CAPE against the death of primary cultured cerebellar granule neurons induced by glutamate lies in inhibiting the activation of p38 phosphorylation and in turn inhibiting the activation of the caspase 3 apoptotic pathway to prevent neuronal apoptosis. Therefore, the MPTP-induced PD mouse model can be used to investigate the inhibitory effect of the target compounds on the activation of p38 phosphorylation on the overall animal level.
as §2, with “phosphorylated p38” for “P-α-s”

GCLC = test: Midbrain GCLC expression in MPTP Parkinson's disease model mouse (western blot); settings: midbrain, MPTP Parkinson's disease model mouse, western blot
Experimental: as §1
Oxidative stress is an important pathogenic mechanism of PD. Dopaminergic neurons are more sensitive to oxidative stress and are more susceptible to oxidative stress damage. Glutathione (GSH) is an important antioxidant substance in the cell, and glutamate cysteine ligase (GCL) is the rate-limiting enzyme for GSH synthesis, which is composed of catalytic subunit (GCLC) and regulatory subunit (GCLM). The increase of GCLC expression can promote the synthesis of GSH and enhance the ability of tissue cells against oxidative stress. GCL, a phase II enzyme, plays an important protective role by catalyzing the conversion of free radicals into non-toxic products and increasing their water solubility to facilitate the elimination of free radicals, and maintain the redox balance in the body. It plays an important role in the process of protecting cells against oxidative stress damage. The activation of p38 protein phosphorylation has a negative regulatory effect on phase II enzymes. […] Using GCLC as an indicator, the inhibitory effect of the target compounds on MPTP-induced oxidative stress damage in PD mice can be investigated.
GCLC is expressed in astrocytes, microglial cells, and neurons. The total proteins of the midbrain tissue of mice in each experiment group were extracted, to determine the expression of phase II enzyme GCLC in the midbrain of mice by western blot using GAPDH as the internal reference. The experiment included blank control group, MPTP model group, positive control group (caffeic acid phenethyl ester, CAPE), prototype control group (styryl sulfone compounds 3B, 3C, 3D), and 3G, whose structures are shown as above), and target compound group.

substantia nigra pp38 = test: Substantia nigra pp38 protein expression in MPTP Parkinson's disease model mouse (immunofluorescence); settings: percentage of mean intensity of blank control group, gavage 21 days after MPTP modeling
Experimental: as §1, §3
Half of experiment mice in each group were taken to separate the midbrain after perfusion and fixation. The tissue was trimmed, and the substantia nigra-striatum area was taken to prepare paraffin sections. The double immunofluorescence staining for TH and phosphorylated p38 was performed to observe the coexpression of TH and phosphorylated p38, for the statistics of the change in the phosphorylated p38 protein expression. The experiment included blank control group, MPTP model group, positive control group (caffeic acid phenethyl ester, CAPE), prototype control group (styryl sulfone compounds 3B, 3C, 3D, and 3G, whose structures are shown as above), and target compound group.

Compound	Expression (p-α-s/GAPDH) (midbrain p-α-s)	Expression (CD11b/GAPDH) (midbrain CD11b)	Expression (pp38/GAPDH) (midbrain pp38)	Expression (GCLC/GAPDH) (GCLC)	Expression (Immunofluorescence intensity %) (substantia nigra pp38) [%]
CCOC(CS(=O)(=O)/C=C/c1ccc(OC(C)=O)c(OC(=O)Nc2ccc(NC)cc2)c1)C(OCC)c1ccc(OCc2ccccc2)c(O)c1 (centres unmarked) [Compound H2-4, (E)-4-{2-[3-(4-benzyloxy-3-hydroxyphenyl)-2,3-diethoxypropyl]sulfonylethenyl}-2-[N-(4-methylaminophenyl)carbamoyloxy]phenyl acetate]	0.53 ± 0.13	0.69 ± 0.04	0.43 ± 0.05	1.21 ± 0.08	103.17 ± 12.58
COCCN(C)C(=O)Oc1cc(/C=C/S(=O)(=O)CCc2cccc(-c3ccc(C)o3)c2)ccc1OC(C)=O [Compound J1-4, (E)-2-[N-(2-methoxyethyl)-N-methylcarbamoyloxy]-4-{2-[3-(5-methylfur-2-yl)phenylethylsulfonyl]ethenyl}phenyl acetate]	0.47 ± 0.11	0.75 ± 0.06	0.41 ± 0.08	1.24 ± 0.10	100.62 ± 13.35
CC(Br)C(Br)COc1cc(/C=C/S(=O)(=O)CCc2ccc(OCC(F)(F)F)cc2)ccc1OC(=O)Nc1ccsc1 (centres unmarked) [Compound K1-3, (E)-2-(2,3-dibromobutoxy)-4-{2-[4-(2,2,2-trifluoroethoxy)phenylethylsulfonyl]ethenyl}phenyl-N-(thien-3-yl)carbamate]	0.34 ± 0.10	1.01 ± 0.08	0.35 ± 0.06	1.13 ± 0.08	73.08 ± 18.10
C=CCOc1ccc(C/C=C/S(=O)(=O)/C=C/c2ccc(OC(C)=O)c(OC(=O)N(CC=C)CC=C)c2)cc1 [Compound K1-4, 4-{(E)-2-[(E)-3-(4-allyloxyphenyl)prop-1-en-1-yl]sulfonylethenyl}-2-(N,N-diallylcarbamoyloxy)phenyl acetate]	0.45 ± 0.12	1.09 ± 0.10	0.44 ± 0.05	1.10 ± 0.07	100.80 ± 5.48
COc1cc(/C=C/S(=O)(=O)Cc2cc(OC)c(OC)c(OC)c2)ccc1OC(=O)N(c1ccccc1)c1ccccc1 [Compound K3-3, (E)-2-methoxy-4-{2-[(3,4,5-trimethoxyphenyl)mesyl]ethenyl}-phenyl-N,N-diphenylcarbamate]	0.62 ± 0.11	1.15 ± 0.07	0.55 ± 0.08	0.86 ± 0.04	111.17 ± 9.62
O=C(NC(=O)C(F)(F)F)Oc1ccc(/C=C/S(=O)(=O)C(F)(F)c2ccc(Oc3ccccn3)cc2)cc1OC(=O)C(F)(F)C(F)(F)F [Compound L1-4, (E)-5-{2-[(4-[pyridin-2-yl-oxy]phenyl)difluoromethylsulfonyl]ethenyl}-2-[N-(2,2,2-trifluoroacetyl)carbamoyloxy]phenyl-2,2,3,3,3-pentafluoropropionate]	0.38 ± 0.08	1.09 ± 0.09	0.28 ± 0.04	0.96 ± 0.10	62.93 ± 17.51
CCN(C)C(=O)Oc1ccc(/C=C/S(=O)(=O)CC(c2ccc(-c3ccc(OC)c(OC)c3)cc2)[N+](=O)[O-])cc1OC(=O)N(C)CC (centres unmarked) [Compound M1-1, (E)-4-{2-[2-(3′,4′-dimethoxy-[1,1′-biphenyl]-4-yl)-2-nitroethylsulfonyl]ethenyl}-1,2-phenylenebis(N-ethyl-N-methylcarbamate)]	0.27 ± 0.08	0.46 ± 0.04	0.40 ± 0.05	1.30 ± 0.09	98.35 ± 6.93
CN(C)c1ccc(CC(=O)Oc2cc(/C=C/S(=O)(=O)C(Br)c3ccc(Cc4ccc(N(C)C)cc4)cc3)ccc2OC(=O)N2CCCC2C(F)(F)F)cc1 (centres unmarked) [Compound M1-5]	0.24 ± 0.05	0.83 ± 0.07	0.29 ± 0.06	1.35 ± 0.08	87.45 ± 11.05
Cc1ccc(N2CCN(C(=O)Oc3ccc(/C=C/S(=O)(=O)CCCC(c4ccc(OC(=O)CN(C)C)cc4)N(C)C)cc3OC(=O)N(C)c3ccccc3)CC2)cc1 (centres unmarked) [Compound P1-1, (E)-4-{2-[4-(dimethylamino)-4-(4-(N,N-dimethylglycyloxy)phenyl)butylsulfonyl]ethenyl}-2-(N-methyl-N-phenylcarbamoyloxy)phenyl-4-(p-methylphenyl)piperazine-1-carboxylate]	0.48 ± 0.12	0.70 ± 0.06	0.50 ± 0.09	0.98 ± 0.06	99.55 ± 8.46
COc1ccc(CC(=O)Oc2ccc(C(N)CS(=O)(=O)/C=C/c3ccc(OC(C)(C)C)c(OC(=O)N(C)c4ccccc4)c3)cc2)cc1 (centres unmarked) [Compound P1-3, (E)-4-{1-amino-2-[4-t-butoxy-3-(N-methyl-N-phenylcarbamoyloxy)styrylsulfonyl]ethyl}phenyl-2-(4-methoxyphenyl)acetate]	0.31 ± 0.05	1.09 ± 0.08	0.33 ± 0.07	0.91 ± 0.11	81.90 ± 9.52
